How the values were obtained:
Experiment in all cases: Large panel kinase profiling
Type in all cases: biochemical
Conditions in all cases: 1 μM test article, 1 mM ATP
CSNK1G1/CK1G1 = molecular target: T1, CSNK1G1/CK1G1 (Homo sapiens, UniProt Q9HCP0)
T1 construct: AssayQuant Technologies, Inc. (service laboratory)
Procedure, shortened: (§1)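 Steps: combine kinase, CSox-Sensor substrate, 1 mM ATP and 1 μM compound; seal and incubate at 30° C.; read top fluorescence kinetically each minute, Ex 360 nm/Em 485 nm.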

EPHA4 = EPHA4 (Homo sapiens, UniProt P54764)
EPHA4, sequence (P54764 20-986, species assumed): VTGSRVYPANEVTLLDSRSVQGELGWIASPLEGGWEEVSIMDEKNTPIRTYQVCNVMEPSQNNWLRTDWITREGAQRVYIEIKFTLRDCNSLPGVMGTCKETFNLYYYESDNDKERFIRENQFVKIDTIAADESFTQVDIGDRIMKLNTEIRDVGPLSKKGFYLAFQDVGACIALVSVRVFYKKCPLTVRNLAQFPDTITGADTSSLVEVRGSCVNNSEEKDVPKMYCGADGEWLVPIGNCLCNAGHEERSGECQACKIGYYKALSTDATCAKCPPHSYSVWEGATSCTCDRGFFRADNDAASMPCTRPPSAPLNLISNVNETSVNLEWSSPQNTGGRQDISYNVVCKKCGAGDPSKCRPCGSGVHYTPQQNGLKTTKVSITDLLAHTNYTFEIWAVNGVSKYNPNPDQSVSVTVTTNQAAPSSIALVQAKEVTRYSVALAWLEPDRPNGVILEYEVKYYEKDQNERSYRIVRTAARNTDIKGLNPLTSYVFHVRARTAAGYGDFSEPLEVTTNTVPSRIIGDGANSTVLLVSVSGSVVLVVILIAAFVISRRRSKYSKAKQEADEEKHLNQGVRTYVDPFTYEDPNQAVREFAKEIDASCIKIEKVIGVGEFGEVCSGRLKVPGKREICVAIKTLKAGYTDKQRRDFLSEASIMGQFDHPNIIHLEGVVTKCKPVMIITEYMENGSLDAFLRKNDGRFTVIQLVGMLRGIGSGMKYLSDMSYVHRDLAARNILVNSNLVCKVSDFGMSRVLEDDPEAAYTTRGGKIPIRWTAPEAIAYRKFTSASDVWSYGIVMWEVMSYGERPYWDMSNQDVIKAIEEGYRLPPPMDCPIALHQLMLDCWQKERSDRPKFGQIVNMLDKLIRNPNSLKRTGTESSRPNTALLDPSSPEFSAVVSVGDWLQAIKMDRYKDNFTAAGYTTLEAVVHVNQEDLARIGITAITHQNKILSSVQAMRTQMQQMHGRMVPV
Procedure, shortened: as §1

MYLK/MLCK = molecular target: T2, MYLK/MLCK (Homo sapiens, UniProt Q15746)
T2 construct: AssayQuant Technologies, Inc. (assay service)
Procedure, shortened: as §1

PRKD2 = molecular target: T3, PRKD2 (Homo sapiens, UniProt Q9BZL6)
T3 sequence (Q9BZL6 1-878): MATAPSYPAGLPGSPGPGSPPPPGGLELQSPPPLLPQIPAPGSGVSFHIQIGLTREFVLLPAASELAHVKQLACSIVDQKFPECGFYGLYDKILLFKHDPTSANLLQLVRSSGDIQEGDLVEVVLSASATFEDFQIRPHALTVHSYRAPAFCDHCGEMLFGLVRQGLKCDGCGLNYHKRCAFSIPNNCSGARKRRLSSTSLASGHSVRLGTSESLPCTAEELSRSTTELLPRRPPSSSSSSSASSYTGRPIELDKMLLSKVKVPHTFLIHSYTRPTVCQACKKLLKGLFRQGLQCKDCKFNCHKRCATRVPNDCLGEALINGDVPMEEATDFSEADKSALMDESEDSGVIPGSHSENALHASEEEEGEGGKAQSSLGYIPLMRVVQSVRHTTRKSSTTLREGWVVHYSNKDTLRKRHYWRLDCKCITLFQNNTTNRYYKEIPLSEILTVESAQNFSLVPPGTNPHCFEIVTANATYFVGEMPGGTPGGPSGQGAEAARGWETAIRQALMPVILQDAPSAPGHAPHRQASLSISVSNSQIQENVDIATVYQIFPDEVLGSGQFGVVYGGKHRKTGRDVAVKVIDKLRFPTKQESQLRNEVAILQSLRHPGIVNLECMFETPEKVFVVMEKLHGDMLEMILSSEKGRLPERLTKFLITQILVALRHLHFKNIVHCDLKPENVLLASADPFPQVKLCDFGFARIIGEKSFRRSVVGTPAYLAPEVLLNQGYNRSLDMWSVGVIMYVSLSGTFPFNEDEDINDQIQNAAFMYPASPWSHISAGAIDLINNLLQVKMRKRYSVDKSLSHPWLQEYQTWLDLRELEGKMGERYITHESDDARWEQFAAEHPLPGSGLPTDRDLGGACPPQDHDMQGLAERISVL
Procedure, shortened: as §1

PRKD3 = molecular target: T4, PRKD3 (Homo sapiens, UniProt O94806)
T4 sequence (O94806 1-890): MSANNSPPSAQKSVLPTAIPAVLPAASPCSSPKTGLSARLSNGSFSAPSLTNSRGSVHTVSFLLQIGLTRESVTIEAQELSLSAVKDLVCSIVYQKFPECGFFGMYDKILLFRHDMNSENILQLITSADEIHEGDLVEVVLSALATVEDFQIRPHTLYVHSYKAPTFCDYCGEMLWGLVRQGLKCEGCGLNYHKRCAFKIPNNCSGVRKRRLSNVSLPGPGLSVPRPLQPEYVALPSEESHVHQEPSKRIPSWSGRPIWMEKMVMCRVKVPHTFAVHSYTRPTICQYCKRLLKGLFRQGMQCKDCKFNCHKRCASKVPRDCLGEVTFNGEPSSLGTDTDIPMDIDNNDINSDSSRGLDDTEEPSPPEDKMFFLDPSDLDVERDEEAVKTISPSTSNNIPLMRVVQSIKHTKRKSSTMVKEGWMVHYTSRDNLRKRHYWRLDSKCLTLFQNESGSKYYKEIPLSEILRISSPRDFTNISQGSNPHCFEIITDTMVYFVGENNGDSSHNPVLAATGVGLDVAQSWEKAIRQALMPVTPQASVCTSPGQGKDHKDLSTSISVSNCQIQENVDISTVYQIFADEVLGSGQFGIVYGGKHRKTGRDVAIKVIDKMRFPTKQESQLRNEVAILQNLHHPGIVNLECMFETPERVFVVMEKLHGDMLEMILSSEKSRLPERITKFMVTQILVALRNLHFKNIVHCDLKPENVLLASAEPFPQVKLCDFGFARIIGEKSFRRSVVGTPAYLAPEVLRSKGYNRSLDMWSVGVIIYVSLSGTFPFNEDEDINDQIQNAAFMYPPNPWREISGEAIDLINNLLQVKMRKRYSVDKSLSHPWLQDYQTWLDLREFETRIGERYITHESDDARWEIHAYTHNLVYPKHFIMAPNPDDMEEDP
Procedure, shortened: as §1

TXK = molecular target: T5, TXK (Homo sapiens, UniProt P42681)
T5 construct: AssayQuant Technologies, Inc. (contract laboratory that ran the panel)
T5 sequence (P42681 1-527): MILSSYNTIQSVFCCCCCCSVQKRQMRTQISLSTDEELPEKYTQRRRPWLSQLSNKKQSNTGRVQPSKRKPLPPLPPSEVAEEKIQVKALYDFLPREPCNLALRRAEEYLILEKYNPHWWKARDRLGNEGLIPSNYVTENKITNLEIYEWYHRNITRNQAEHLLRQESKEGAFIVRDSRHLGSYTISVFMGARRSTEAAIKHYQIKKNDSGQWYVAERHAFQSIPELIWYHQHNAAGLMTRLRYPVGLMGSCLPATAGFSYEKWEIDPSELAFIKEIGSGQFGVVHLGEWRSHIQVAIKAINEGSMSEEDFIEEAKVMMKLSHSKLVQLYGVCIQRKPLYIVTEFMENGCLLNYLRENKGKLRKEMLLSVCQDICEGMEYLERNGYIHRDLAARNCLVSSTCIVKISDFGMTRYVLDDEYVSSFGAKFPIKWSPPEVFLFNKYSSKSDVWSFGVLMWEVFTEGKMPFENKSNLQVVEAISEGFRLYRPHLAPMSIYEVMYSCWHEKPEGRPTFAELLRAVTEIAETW
Procedure, shortened: as §1

YES = molecular target: T6, YES (Homo sapiens, UniProt P07947)
T6 construct: AssayQuant Technologies, Inc. (contract laboratory that ran the panel)
T6 sequence (P07947 whole entry, species assumed): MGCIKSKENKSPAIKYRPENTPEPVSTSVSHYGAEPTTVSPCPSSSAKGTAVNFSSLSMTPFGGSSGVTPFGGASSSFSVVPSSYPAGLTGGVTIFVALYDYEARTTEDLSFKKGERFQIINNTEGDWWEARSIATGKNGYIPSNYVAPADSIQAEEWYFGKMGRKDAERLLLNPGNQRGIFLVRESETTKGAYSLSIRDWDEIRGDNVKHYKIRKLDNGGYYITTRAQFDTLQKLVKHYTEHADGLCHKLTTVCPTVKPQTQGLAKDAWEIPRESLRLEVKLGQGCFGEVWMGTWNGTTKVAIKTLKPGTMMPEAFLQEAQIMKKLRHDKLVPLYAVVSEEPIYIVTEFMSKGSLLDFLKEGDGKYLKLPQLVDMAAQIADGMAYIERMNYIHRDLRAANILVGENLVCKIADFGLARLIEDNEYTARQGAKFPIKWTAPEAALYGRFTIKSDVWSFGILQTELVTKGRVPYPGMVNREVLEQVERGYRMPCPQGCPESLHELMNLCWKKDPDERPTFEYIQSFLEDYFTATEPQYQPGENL
Procedure, shortened: as §1

T1 sequence (Q9HCP0 whole entry): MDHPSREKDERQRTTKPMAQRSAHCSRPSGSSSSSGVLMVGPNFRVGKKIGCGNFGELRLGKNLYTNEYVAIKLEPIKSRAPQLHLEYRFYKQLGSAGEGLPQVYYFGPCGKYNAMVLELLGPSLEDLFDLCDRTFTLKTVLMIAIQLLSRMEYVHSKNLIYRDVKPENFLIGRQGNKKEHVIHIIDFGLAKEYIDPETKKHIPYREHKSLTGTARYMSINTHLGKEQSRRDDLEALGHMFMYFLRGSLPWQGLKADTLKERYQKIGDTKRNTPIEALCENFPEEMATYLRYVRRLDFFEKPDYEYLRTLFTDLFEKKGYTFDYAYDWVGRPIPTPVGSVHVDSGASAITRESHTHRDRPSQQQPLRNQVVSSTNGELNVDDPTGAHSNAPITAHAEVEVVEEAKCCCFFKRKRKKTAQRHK

Row | Compound | inhibition at 1 µM (CSNK1G1/CK1G1) [%] | inhibition at 1 µM (EPHA4) [%] | inhibition at 1 µM (MYLK/MLCK) [%] | inhibition at 1 µM (PRKD2) [%] | inhibition at 1 µM (PRKD3) [%] | inhibition at 1 µM (TXK) [%] | inhibition at 1 µM (YES) [%]
1 | C=CC(=O)N1CCCC(c2c(F)cc(C(N)=O)c3[nH]c4c(c23)CCCCC4)C1 (single isomer, unassigned) [Compound 5-6] | 17.2 | 4.2 | 19.7 | -14.2 | 4.4 | 74.7 | 8.8
2 | C=CC(=O)N1CCC[C@@H](c2c(F)cc(C(N)=O)c3[nH]c4c(c23)CC2(CC4)CC2)C1 [Compound 6-2, (S)-5-(1-acryloylpiperidin-3-yl)-6-fluoro-1,2,4,9-tetrahydrospiro[carbazole-3,1′-cyclopropane]-8-carboxamide] | 14 | 4.9 | -24 | -32.9 | -62.4 | 59.1 | 27
3 | C=CC(=O)N1CCC[C@@H](c2c(F)cc(C(N)=O)c3[nH]c4c(c23)CCC4)C1 [Compound 10-2, (S)-8-(1-acryloylpiperidin-3-yl)-7-fluoro-1,2,3,4-tetrahydrocyclo-penta[b]indole-5-carboxamide] | -2.8 | -44.2 | -27.4 | -12.1 | -65.4 | 71 | 23.9
